Where two headings read alike, the source gives them in different places. One block for each compound: values may come before it.
Legend:
[1] = biological target: T1, P-glycoprotein (Homo sapiens, UniProt P08183); assay: in vitro; details: MDCK-MDR1
Procedure: MDCKII-MDR1 cells were incubated in cell culture flasks. The incubator was set at 37° C., 5% CO2, and a guaranteed relative humidity of 95%. When the cells reached 70 to 90% confluence, the cells may be seeded to transwells.
50 μL of the cell suspensions were added to the apical chambers of each well of the 96-well transwells at a final seeding density of 5.45×10^5 cells/cm^2.
MDCKII-MDR1 cells may be fully confluent and differentiated after 4 to 8 days of incubation. At this time, the cells may be applied to penetration test. The monolayer membrane resistance was measured with a resistance meter (Millipore), and the resistance per well was recorded. After the test, the transwells were returned to the incubator.
The transwells with MDCKII-MDR1 cells were taken from the incubator. The cell monolayers were rinsed twice with buffer and incubated at 37° C. for 30 minutes.
The rate of the compounds from an apical end to a basolateral end was determined. 75 μL of the buffer containing the test sample was added to each well of the apical chambers (apical end), and 235 μL of the buffer was added to each well of the basolateral chambers (basolateral end).
The rate of the compounds transporting from the basolateral end to the apical end was determined. 75 μL of the buffer was added to the apical chambers (apical end), and 235 μL of the buffer containing the test sample was added to the basolateral chamber (basolateral end).
After the apical chambers and the basolateral chambers were combined respectively, the transwells were incubated at 37° C. for 2 hours.
After incubation, 50 μL of the sample from each well of the apical chambers and the basolateral chambers of the transwells was transferred to new sample tubes respectively. 200 μL of acetonitrile (100 nM of Alprazolam, 200 nM of Labetalol, 200 nM of caffeine, and 2 μM of Ketoprofen) as an internal standard was added to the sample tubes, vortexed for 10 minutes, and centrifuged at 3220 g for 30 minutes. 100 μL of the supernatant was taken and diluted with an equal volume of water for LC-MS/MS analysis. Each sample was incubated in triplicate.
Peak-areas were calculated from ion chromatography results. The apparent permeability coefficient (Papp, unit: cm/s×10-6) of the compounds was calculated by the following formula.
In the formula, VA was the volume of the solution at the acceptor end (Ap→B1 was 0.235 mL, and B1→Ap was 0.075 mL), Area was the membrane area (0.143 cm^2) of 96-well transwell, time was the incubation time (unit: s), [drug]acceptor referred to the drug concentration of the acceptor end after incubation, and [drug]initial,donor referred to the initial concentration of the donor end before incubation.
Efflux ratio was calculated with the following formula.
In the formula, Papp(B_A) was the apparent permeability coefficient from the basolateral end to the apical end, and Papp(A-B) was the apparent permeability coefficient from the apical end to the basolateral end.
The recovery rate was calculated with the following formula.
In the formula, VA was the solution volume of the acceptor end (unit: mL), VD was the solution volume of the donor end (unit: mL), [drug]acceptor referred to the drug concentration of the acceptor end after incubation, and [drug]initial,donor referred to the initial concentration of the donor end before incubation.

[2] = biological target: T1, P-glycoprotein; set-up: expressed in transfected cells; host or cells: MDCKII-MDR1 (MDCKII canine kidney cells); details: cited from earlier work
[3] = Maximal tolerance dose (MTD) experiment; format: in vivo, ICR mice; details: for Effect on animal body weight: after intravenous injection in mice; for Gross necropsy of the surviving animals: after the recovery period; for MTD at 5 days: both sexes, ICR, mouse, in vivo, iv; for Average food intake vs normal mice: each administration group
Procedure: 18 ICR mice, 9 females/9 males, were selected for the experiment. According to gender and body weight, the mice were randomly divided into a 10 mg/kg group, a 20 mg/kg group, and a 40 mg/kg group of the S-configuration of compound 01, with 3 females/3 males in each group. By intravenous injection, the 10 mg/kg group of the S-configuration of compound 01 was administered with 1 mg/ml of the administration concentration, 10 ml/kg of the administration volume, and 10 mg/kg of the dose. The 20 mg/kg group containing the S-configuration of compound 01 was administered with 2 mg/ml of the administration concentration, 10 ml/kg of the administration volume, and 20 mg/kg of the dose. The 40 mg/kg group containing the S-configuration of compound 01 was administered with 4 mg/ml of the administration concentration, 10 ml/kg of the administration volume, and 40 mg/kg of the dose. The mice was administered once a day for 5 consecutive days, and recovered for 2 weeks after the last administration. The mice were closely observed for 2 hours after administration of the daily drug. The mice were observed twice a day in the morning and afternoon on the non-administration day. During the experiment, body weight and food intake were measured twice a week. The dead animals and all the survival animals were subjected to gross necropsy on the 14th day after the last administration. The diseased organic were grossly necropsied for histopathological examination.
18 ICR mice, 9 females/9 males, were selected for the experiment. According to gender and body weight, the mice were randomly divided into a 10 mg/kg group, a 20 mg/kg group, and a 40 mg/kg group of the R-configuration of compound 01, with 3 females/3 males in each group. By intravenous injection, the 10 mg/kg group of the R-configuration of compound 01 was administered with 1 mg/ml of the administration concentration, 10 ml/kg of the administration volume, and 10 mg/kg of the dose. The 20 mg/kg group of the R-configuration of compound 01 was administered with 2 mg/ml of the administration concentration, 10 ml/kg of the administration volume, and 20 mg/kg of the dose. The 40 mg/kg group of the R-configuration of compound 01 was administered with 4 mg/ml of the administration concentration, 10 ml/kg of the administration volume, and 40 mg/kg of the dose. The mice was administered once a day for 5 consecutive days, and recovered for 1 week after the last administration. […] To find the maximum tolerated dose, a second cycle of dosing was required. The doses were adjusted and administered for 5 consecutive days.
The mice were closely observed for 2 hours after administration of the daily drug. The mice were observed twice a day in the morning and afternoon on the non-administration day. During the experiment, body weight and food intake were measured twice a week. The dead animals and all the survival animals were subjected to gross necropsy on the 14th day after the last administration. The diseased organic were grossly necropsied for histopathological examination.

[4] = system: H460 non-small cell lung cancer; assay: Cytotoxicity test of human tumor cell line in vitro (CTG, 72 hours); format: cell-based; details: Homo sapiens, NCI-H460; H460, 72 hours exposure
Procedure: IC50 values were obtained by the following methods. The cancer cells were exposed to various concentrations of compounds for 72 hours. Following by washing steps, fresh medium was added to allow the growth of the cancer cells. The cancer cells were stained to obtain cell viability. Then, comparisons were made with the medium-only control.
Specifically, the exponentially growing cells were seeded in 96-well plates at a density of 2×10^3 cells/well, and 100 μL/well. The cells were incubated for 24 hours at 37° C., in 5% CO2, in 95% air, and 100% relative humidity. Next, 99 μL of culture medium was added. The compounds were dissolved in 100% DMSO at 200 times the desired final test concentration. Upon addition of compounds, the compounds were further diluted to 4 times the desired final concentration with a complete medium. Aliquots of 1 μL of compounds at specific concentration were added to the micro-wells containing 199 μL of medium to obtain the final compound concentrations as reported. After the compounds were added, the plates were incubated for an addition 72 hours at 37° C., in 5% CO2, in 95% air, and 100% relative humidity.
The plates to be test containing the cells were equilibrated at room temperature for 30 minutes, and 100 μL of medium per well was discarded. 100 μL of CTG reagent (CelltiterGlo Kit) was added to each well. The plates were placed in a fast-shaker to shake for 2 minutes, and placed at room temperature for 30 minutes in the dark. Chemoluminescence signal values were read with Envision instrument.

[5] = system: H460 cell line; assay: Hypoxia-dependent cytotoxicity experiment (2 hours exposure, air or N2, CTG); format: cell-based; details: Homo sapiens, then 3 days
Procedure: To determine the effect of the compounds of the present disclosure on cancer cell proliferation, these compounds were tested for cancer cell anti-proliferative activity in a porous CTG-based assay. Cell growth was compared in the present (treatment groups) and the absence of the test compound. 10,000 cells/well/495 μL of medium was used to test the following cell line, a human tumor cell line of H460 non-small cell lung cancer. The cells were seeded on glass-inserts located in each well of 24-well plates with a density and medium as specified above. 24 hours later, the plates were divided into 2 groups, hypoxia (using N2) group and air group. TH-302 at the concentrations from 100, 10, 0.1 to 0.01 μM, and the test compounds at the concentrations from 10, 1, 0.1, 0.01, 0.001 to 0.0001 were added to each well (500 μL volume) of the treatment groups. The final DMSO concentration in each well was lower than or equal to 1%. The cells in the hypoxia group were incubated for 2 hours in an ELECTROTEK hypoxia workstation. The cells in the air group were incubated for 2 hours in a standard culture incubator. 2 hours later, the test compounds were removed from each well. The cells were washed with 500 μL of medium and incubated in 500 μL of fresh medium for 3 days. 3 days later, 200 μL of medium per well was discarded. 60 μL of CTG was added to the wells, and the plates were placed at room temperature for 15 minutes in the dark. 100 μL of medium from each well of the 24-well plates was transferred to 96-well plates. The chemiluminescence signal values were read with an M5 full-band multi-mode-function microplate reader, and integration=750 ms. The compounds of control 1 and control 2 were used as controls.

[6] = ICR mice, intravenous injection, once a day for 5 consecutive days, read-out: Maximum tolerated dose / MTD result
[7] = NCI-H460, H460, air, read-out: Normoxia: IC50
[8] = NCI-H460, H460, hypoxia (N2), read-out: N2: IC50

T1 sequence (P08183 whole entry): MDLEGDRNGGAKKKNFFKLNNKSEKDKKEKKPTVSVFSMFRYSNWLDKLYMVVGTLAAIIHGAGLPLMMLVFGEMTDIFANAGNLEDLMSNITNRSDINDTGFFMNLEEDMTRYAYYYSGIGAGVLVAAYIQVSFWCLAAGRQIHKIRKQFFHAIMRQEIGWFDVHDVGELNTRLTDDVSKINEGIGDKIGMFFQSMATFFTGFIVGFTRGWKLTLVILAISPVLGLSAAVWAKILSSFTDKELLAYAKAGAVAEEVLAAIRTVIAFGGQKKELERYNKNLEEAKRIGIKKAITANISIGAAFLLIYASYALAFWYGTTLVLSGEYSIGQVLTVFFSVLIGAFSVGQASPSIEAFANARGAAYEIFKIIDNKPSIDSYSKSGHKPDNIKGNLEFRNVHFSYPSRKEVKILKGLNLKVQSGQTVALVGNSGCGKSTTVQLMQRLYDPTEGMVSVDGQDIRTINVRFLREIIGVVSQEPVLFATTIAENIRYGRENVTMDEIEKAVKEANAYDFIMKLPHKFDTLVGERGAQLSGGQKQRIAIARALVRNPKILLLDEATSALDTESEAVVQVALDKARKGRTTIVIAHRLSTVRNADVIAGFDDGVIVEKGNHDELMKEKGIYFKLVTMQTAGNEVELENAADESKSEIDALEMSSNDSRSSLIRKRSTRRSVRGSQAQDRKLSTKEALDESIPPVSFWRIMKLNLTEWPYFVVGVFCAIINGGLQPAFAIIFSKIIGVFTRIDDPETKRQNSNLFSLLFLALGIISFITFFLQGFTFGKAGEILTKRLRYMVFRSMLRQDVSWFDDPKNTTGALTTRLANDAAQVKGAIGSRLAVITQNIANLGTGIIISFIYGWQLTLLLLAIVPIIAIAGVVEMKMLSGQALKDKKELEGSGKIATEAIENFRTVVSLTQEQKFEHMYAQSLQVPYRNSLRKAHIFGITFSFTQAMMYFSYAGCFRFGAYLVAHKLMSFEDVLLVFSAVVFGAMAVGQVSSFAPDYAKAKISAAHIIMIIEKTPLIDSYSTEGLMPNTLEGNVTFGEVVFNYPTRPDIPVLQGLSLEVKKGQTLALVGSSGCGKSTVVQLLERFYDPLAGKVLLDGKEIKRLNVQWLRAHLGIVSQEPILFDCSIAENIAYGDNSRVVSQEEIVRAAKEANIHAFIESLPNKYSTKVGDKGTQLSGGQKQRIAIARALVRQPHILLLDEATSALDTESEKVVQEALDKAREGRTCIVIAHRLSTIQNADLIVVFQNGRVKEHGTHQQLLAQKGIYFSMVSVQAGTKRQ

Papp (A-B) [1]: 28.47 10^−6, cm/s
Papp (B-A) [1]: 14.14 10^−6, cm/s
Papp A→B at 2 h ([1]; dog): 14 ×10⁻⁶ cm/s
Papp B→A at 2 h ([1]; dog): 28.2 ×10⁻⁶ cm/s
Structure (SMILES): COc1cc2nc(N3CCN(C(=O)c4ccco4)CC3)nc(N)c2cc1OC [Prazosin, reference compound]
P-gp substrate (known / earlier data and literature) [2]: known P-gp substrates

Structure (SMILES): O=[N+]([O-])c1ccc([C@H](OP(=O)(N2CC2)N2CC2)C(F)(F)F)c2ccccc12 [S-configuration of compound 01]
Clinical symptoms after administration ([3]; 10 mg/kg group and 20 mg/kg group): in good condition
Clinical symptoms after administration ([3]; 40 mg/kg group): unsteady gait, deepened breathing, accelerated breathing, and decreased spontaneous activity
Animals died ([3]; 40 mg/kg group, i.v., 5 consecutive days): 3 of the 6
Effect on animal body weight [3]: increased slowly
Gross necropsy of the surviving animals [3]: on obvious gross pathological changes
MTD at 5 days [3, 6]: 20 mg/kg
Average food intake vs normal mice [3]: no significant difference

Structure (SMILES): O=[N+]([O-])c1ccc([C@@H](OP(=O)(N2CC2)N2CC2)C(F)(F)F)c2ccccc12 [R-configuration of compound 01]
Animal death after the first 5 consecutive days ([3]; 10, 20 and 40 mg/kg groups, first cycle): no animal death
Animals died ([3]; 10/80 mg/kg group (1st cycle 10 mg/kg, 2nd cycle 80 mg/kg)): 1 of the 6
Animals died ([3]; 20/60 mg/ml group): 3 of the 6
Animals died ([3]; 40/40 mg/kg group): 1 of the 6
Maximum tolerated dose / MTD result ([3]; ICR mice, intravenous injection, once a day for 5 consecutive days): 20 to 40 mg/kg
Effect on animal body weight [3]: increased slowly
Gross necropsy of the surviving animals [3]: on obvious gross pathological changes
MTD at 5 days ([3]; ICR mice, intravenous injection, first cycle, read-out: Maximum tolerated dose): > 40 mg/kg
MTD at 5 days [3, 6]: 20 to 40 mg/kg
MTD at 5 days ([3]; ICR mice, intravenous injection, second cycle, read-out: Maximum tolerated dose): < 40 mg/kg
Average food intake vs normal mice [3]: no significant difference
Clinical symptoms after administration ([3]; first cycle, 10/80 mg/kg group): in good condition
Clinical symptoms after administration ([3]; first cycle, 20/60 mg/kg group): unsteady gait
Clinical symptoms after administration ([3]; first cycle, 40/40 mg/kg): intermittent gait unsteady, accelerated breathing, and increased spontaneous activity
Clinical symptoms after administration ([3]; second cycle, 10/80 mg/kg): abnormal gait, decreased muscle tension, decreased spontaneous activity, irregular breathing, unsteady gait, accelerated breathing, erect hair, spasm, deepened breathing, prone, and arched back
Clinical symptoms after administration ([3]; second cycle, 20/60 mg/kg): intermittent deepened breathing, decreased spontaneous activity, unsteady gait, irregular breathing, increased spontaneous activity, accelerated breathing, unsteady gait, and prone
Clinical symptoms after administration ([3]; second cycle, 40/40 mg/kg): intermittent unsteady gait, deepened breathing, accelerated breathing, increased spontaneous activity, and abnormal gait

Structure (SMILES): O=[N+]([O-])c1ccc(C(OP(=O)(N2CC2)N2CC2)C(F)(F)F)cc1 (centres unmarked) [Control 2, reference compound]
IC50 [4]: 659 nM
IC50 [5, 7]: 15600 nM
IC50 [5, 8]: 7080 nM

Structure (SMILES): O=[N+]([O-])c1c(COP(=O)(N2CC2)N2CC2)ccc2ccccc12 [Compound 03]
IC50 [4]: 806 nM
IC50 [5, 7]: 10000 nM
IC50 [5, 8]: 634 nM

Structure (SMILES): CC(OP(=O)(N1CC1)N1CC1)c1ccc([N+](=O)[O-])c2ccccc12 (centres unmarked) [Compound 26]
IC50 [4]: 92 nM
IC50 [5, 7]: 37.6 nM
IC50 [5, 8]: < 9.8 nM

Source: patent US20230026163A1, “ANTICANCER COMPOUND AND MEDICAL USE THEREOF” (ASCENTAWITS PHARMACEUTICALS, LTD., priority 2019, published 2023)
